Assay results taken from patent US11673927B2, “Antitumor agent targeting HGF-regulated tyrosine kinase substrate (HGS)” (TOKYO METROPOLITAN INSTITUTE OF MEDICAL SCIENCE, priority 2018, dated 2023).

Assays:
COLO 205 cells = test: In vivo Xenograft test; parameters: species or system BALB/c Slc-nu/nu nude mice; details: for tumor growth inhibitory effect compared with OP12-462, OP10-507 and OP10-527: COLO 205 xenograft, same method as Example 2 1.(2), FIGS. 6A to 6C; for tumor growth of COLO 205 cells (tumor volume): nude mice, 5 mg/kg body weight, tail vein, once daily Day 0 to Day 9, versus PBS
Description: COLO 205 cells (1E+6 cells/0.2 ml PBS) were inoculated subcutaneously into the back of BALB/c Slc-nu/nu nude mice (female) (n=5 or 6). The day after 10 days was set as Day 0, and PBS or the test oligopeptides (OP12-462, OP10-507 and OP10-527) (5 mg/kg body weight) was administered as a 0.2 ml PBS solution in the tail vein once daily for 10 days from Day 0 to Day 9. The size of the tumor formed was measured once daily from Day 0. The tumor volume was estimated by measuring the minor axis and major axis of the tumor (tumor volume=(semi-minor axis×semi-minor axis×semi-major axis×π)/6).
With the same method as in the above “[Example 2] 1. (2)”, the tumor growth inhibitory ability was evaluated for OP10-7, OP10-10 and OP10-11, which are typical examples of conventional HGS/C constituent oligopeptides.

[1] = test system: B16 cells or COLO 205 cells; test: In vitro anchorage-independent growth inhibition test of OP12-462 alanine substituted peptides; format: cell-based; details: compared with the sample untreated with an oligopeptide (vehicle) or with OP12-462, FIG. 5
Description: (§1) In the present example, the Ultra-Low Attachment Surface Corning Costar 96 Well Cell Culture Plate 3474 (Corning) was used as an Ultra-Low Attachment Surface (ULAS) plate, and Tissue Culture Treated Corning Costar 96 Well Cell Culture Plate 3595 (Corning) was used as a normal plate.
(§2) As cells, mouse melanoma B16 cells and human colorectal cancer-derived COLO 205 cells were used, and Cell Counting Kit-8 (Dojindo Laboratories) was used to evaluate cell growth.
(§3) B16 cells or COLO 205 cells (2E+3 cells/0.2 ml Opti-MEM medium, 5% FBS/well) were seeded in each well of the ULAS plate and normal plate. The test oligopeptides (OP12-462, OP10-507 and OP10-527) (0, 0.16, 0.4, 8 nmol) were each added and cultured at 37° C.
(§4) After 7 days, 0.1 ml of Cell Counting Kit-8 solution (5-fold PBS diluted solution) was added, and the absorbance A450 nm was immediately measured and set as the TO blank value.
(§5) After incubating at 37° C. for 2 hours, the absorbance A450 nm was measured again and set as T2. The change=T2−T0 was defined as the anchorage-independent growth activity value or the anchorage-dependent growth activity value. The cell growth activity when adding a test oligopeptide was quantified as the relative ratio to the cell growth activity when no test oligopeptide was added.
As was in the above “1. […]

mouse melanoma B16 cells [2] = test: Experimental lung metastasis inhibition test; format: in vivo, C57BL/6 mice; details: B16 cells incubated with 40 nmol oligopeptide 2 hours, tail vein, colonies counted after 28 days, versus vehicle
Description: The metastasis inhibitory effect of OP12-462 on the experimental lung metastasizing ability of mouse melanoma B16 cells was examined.
First, a PBS solution (0.2 ml PBS) of mouse melanoma B16 cells (1E+5 cells) and the test oligopeptide (OP12-462) (40 nmol) was incubated at 37° C. for 2 hours. After incubation, this solution was administered to C57BL/6 mice (female) in the tail vein. The number of B16 cell metastatic tumor colonies in the mouse lung was counted 28 days after the tail vein administration of B16 cells. The ability of the oligopeptide OP12-462 to inhibit metastasis was quantified as the relative ratio of the number of the tumor colonies treated with the oligopeptide to the number of tumor colonies of B16 cells untreated with the oligopeptide.
As was in the above “1. (3)”, an experimental lung metastasis inhibition test was conducted on the oligopeptide OP12-462 and the OP12-462 alanine substituted peptides.

[3] = target: T1, GST-labeled STAM (Human) Recombinant Protein (Homo sapiens, UniProt Q92783); test: SPR interaction screening with immobilized GST-labeled STAM; format: binding; details: ProteOn XPR36, GST value as blank
T1 construct: purchased Abnova
T1 sequence (Q92783 1-540): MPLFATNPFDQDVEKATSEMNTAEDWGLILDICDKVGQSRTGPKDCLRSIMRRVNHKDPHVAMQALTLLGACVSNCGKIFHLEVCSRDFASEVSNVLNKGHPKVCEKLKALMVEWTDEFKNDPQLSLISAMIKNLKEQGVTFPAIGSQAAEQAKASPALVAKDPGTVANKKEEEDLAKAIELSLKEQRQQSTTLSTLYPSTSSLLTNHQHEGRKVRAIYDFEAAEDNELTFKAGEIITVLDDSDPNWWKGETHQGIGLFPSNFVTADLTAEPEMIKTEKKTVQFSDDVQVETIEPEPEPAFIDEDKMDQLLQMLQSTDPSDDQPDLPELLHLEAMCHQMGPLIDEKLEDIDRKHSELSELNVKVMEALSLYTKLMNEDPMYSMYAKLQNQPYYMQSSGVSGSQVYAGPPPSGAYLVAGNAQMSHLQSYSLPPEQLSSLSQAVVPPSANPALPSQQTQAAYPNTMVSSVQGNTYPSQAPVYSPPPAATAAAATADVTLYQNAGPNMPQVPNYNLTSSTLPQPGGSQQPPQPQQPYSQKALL
Description: (§6) Specifically, Glutathione S-transferase (GST)-labeled HGS (Human) Recombinant Protein (Abnova), GST-labeled STAM (Human) Recombinant Protein (Abnova), or GST (Abnova) was immobilized on a ProteOn™ GLH sensor chip.
(§7) The interactions between the HGS/C constituent oligopeptides and these immobilized proteins were measured using the ProteOn™ XPR36 interaction array system (Bio-Rad). Using the GST value as a blank value, the dissociation rate constants (Kd) of the HGS/C-constituent oligopeptides with each of GST-labeled HGS and GST-labeled STAM were measured.

[4] = target: T2, GST-labeled HGS (Human) Recombinant Protein (Homo sapiens, UniProt O14964); test: SPR interaction screening with immobilized GST-labeled HGS; format: binding; details: ProteOn XPR36, GST value as blank
T2 construct: purchased Abnova
T2 sequence (O14964 whole entry): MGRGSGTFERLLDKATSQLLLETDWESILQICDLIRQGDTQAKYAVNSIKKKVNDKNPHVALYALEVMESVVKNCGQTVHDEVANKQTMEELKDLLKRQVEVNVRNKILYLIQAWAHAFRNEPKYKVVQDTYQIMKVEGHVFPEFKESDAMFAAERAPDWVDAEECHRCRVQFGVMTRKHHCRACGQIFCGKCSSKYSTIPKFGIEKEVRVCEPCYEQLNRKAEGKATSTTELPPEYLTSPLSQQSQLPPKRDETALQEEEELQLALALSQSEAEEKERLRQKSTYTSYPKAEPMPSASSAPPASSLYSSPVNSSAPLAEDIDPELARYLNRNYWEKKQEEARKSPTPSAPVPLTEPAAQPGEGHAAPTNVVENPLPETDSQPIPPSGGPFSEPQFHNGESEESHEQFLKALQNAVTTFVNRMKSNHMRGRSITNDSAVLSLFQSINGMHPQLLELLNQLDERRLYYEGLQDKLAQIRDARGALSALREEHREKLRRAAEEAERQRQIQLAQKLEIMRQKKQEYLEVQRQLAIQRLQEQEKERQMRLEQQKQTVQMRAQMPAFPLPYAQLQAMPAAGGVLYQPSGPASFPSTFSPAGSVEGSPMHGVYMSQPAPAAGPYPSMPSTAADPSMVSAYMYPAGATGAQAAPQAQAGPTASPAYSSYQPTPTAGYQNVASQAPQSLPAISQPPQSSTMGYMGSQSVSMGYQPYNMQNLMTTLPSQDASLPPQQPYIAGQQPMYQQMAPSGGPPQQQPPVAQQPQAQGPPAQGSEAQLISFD
Description: as §6, §7

[5] = test system: human colorectal cancer-derived COLO 205 cells; test: In vitro anchorage-independent growth inhibition test (ULAS plate), COLO 205; format: cell-based; details: ULAS plate, 0, 0.16, 0.4, 8 nmol, 7 days, FIG. 2B
Description: (§8) Cancer cells proliferate in an anchorage-independent manner, and normal cells proliferate in an anchorage-dependent manner.
as §1, §2, §3, §4, §5

mouse melanoma B16 cells [6] = test: In vitro anchorage-independent growth inhibition test (ULAS plate), B16; format: cell-based; details: ULAS plate, 0, 0.16, 0.4, 8 nmol, 7 days, FIG. 2A
Description: as §8, §1, §2, §3, §4, §5

mouse melanoma B16 cells [7] = test: In vitro anchorage-dependent growth inhibition test (normal plate), B16; format: cell-based; details: normal plate, 0, 0.16, 0.4, 8 nmol, 7 days, FIG. 2A
Description: as §8, §1, §2, §3, §4, §5

[8] = test system: human colorectal cancer-derived COLO 205 cells; test: In vitro anchorage-dependent growth inhibition test (normal plate), COLO 205; format: cell-based; details: normal plate, 0, 0.16, 0.4, 8 nmol, 7 days, FIG. 2B
Description: as §8, §1, §2, §3, §4, §5

Row | Sequence | tumor growth inhibitory effect compared with OP12-462, OP10-507 and OP10-527 (COLO 205 cells) | tumor growth of COLO 205 cells (tumor volume) (COLO 205 cells) | experimental lung metastasizing ability of mouse melanoma B16 cells (number of lung tumor colonies) (mouse melanoma B16 cells [2]) | interaction with STAM, dissociation rate constant (Kd) as index [3] | interaction with HGS, dissociation rate constant (Kd) as index [4] | anchorage-independent growth activity [5] | anchorage-independent growth activity (mouse melanoma B16 cells [6]) | anchorage-dependent growth activity (mouse melanoma B16 cells [7]) | anchorage-dependent growth activity [8] | further results
1 | ALSALREEHR [OP10-7, conventional HGS/C constituent oligopeptide] | remarkably lower | a tumor growth inhibitory effect was observed | – | – | – | – | – | – | – | –
2 | ERALYYEGLQDK [OP12-462-A3] | – | – | remarkably inhibited | – | – | – | – | – | – | in vitro anchorage-independent growth [1]: equally to or more than OP12-462
3 | ERRAYYEGLQDK [OP12-462-A4] | – | – | remarkably inhibited | – | – | – | – | – | – | –
4 | ERRLYYEGAQDK [OP12-462-A9] | – | – | remarkably inhibited | – | – | – | – | – | – | –
5 | ERRLYYEGLQDK [OP12-462] | – | statistically significantly inhibited | remarkably inhibited | enhanced interaction | enhanced interaction | strongly inhibited | strongly inhibited | did not inhibit at all or hardly inhibited | did not inhibit at all or hardly inhibited | –
6 | EYLEVQRQLA [OP10-11, conventional HGS/C constituent oligopeptide] | remarkably lower | a tumor growth inhibitory effect was observed | – | – | – | – | – | – | – | –
7 | KLEIMRQKKQ [OP10-10, conventional HGS/C constituent oligopeptide] | remarkably lower | a tumor growth inhibitory effect was observed | – | – | – | – | – | – | – | –
8 | QIQLAQKLEI [OP10-507] | – | statistically significantly inhibited | – | strong interaction | strong interaction | strongly inhibited | strongly inhibited | did not inhibit at all or hardly inhibited | did not inhibit at all or hardly inhibited | –
9 | RRLYYEGLQD [OP10-463] | – | – | – | strong interaction | strong interaction | – | – | – | – | –
10 | VQRQLAIQRL [OP10-527] | – | statistically significantly inhibited | – | strong interaction | strong interaction | strongly inhibited | strongly inhibited | did not inhibit at all or hardly inhibited | did not inhibit at all or hardly inhibited | –
